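96-well plates; 48 h exposure; 5 concentrations. Endpoints by linear interpolation between flanking doses. Not reached: highest tested concentration assigned. GI50 marks 50% less growth. Definition used: TGI = concentration required for complete inhibition of growth.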
Legend:
Assay in all cases: DTP human tumour cell line panel, 48 h
786-0 renal = tested on: 786-0 renal
A549 NSCLC = tested on: A549 NSCLC
ACHN renal = tested on: ACHN renal
BT-549 breast = tested on: BT-549 breast
CAKI-1 renal = tested on: CAKI-1 renal
CCRF-CEM leukemia = tested on: CCRF-CEM leukemia
COLO 205 colon = tested on: COLO 205 colon
DU-145 prostate = tested on: DU-145 prostate
EKVX NSCLC = tested on: EKVX NSCLC
HCC-2998 colon = tested on: HCC-2998 colon
HCT-116 colon = tested on: HCT-116 colon
HCT-15 colon = tested on: HCT-15 colon
HL-60(TB) leukemia = tested on: HL-60(TB) leukemia
HOP-62 NSCLC = tested on: HOP-62 NSCLC
HOP-92 NSCLC = tested on: HOP-92 NSCLC
HS 578T breast = tested on: HS 578T breast
IGROV1 ovarian = tested on: IGROV1 ovarian
K-562 leukemia = tested on: K-562 leukemia
KM12 colon = tested on: KM12 colon
LOX IMVI melanoma = tested on: LOX IMVI melanoma
M14 melanoma = tested on: M14 melanoma
MCF7 breast = tested on: MCF7 breast
MDA-MB-231 breast = tested on: MDA-MB-231 breast
MDA-MB-435 = tested on: MDA-MB-435
MOLT-4 leukemia = tested on: MOLT-4 leukemia
NCI-H226 lung = tested on: NCI-H226 lung
NCI-H23 lung = tested on: NCI-H23 lung
NCI-H460 lung = tested on: NCI-H460 lung
NCI-H522 lung = tested on: NCI-H522 lung
NCI/ADR-RES ovarian = tested on: NCI/ADR-RES ovarian
OVCAR-3 ovarian = tested on: OVCAR-3 ovarian
OVCAR-4 ovarian = tested on: OVCAR-4 ovarian
OVCAR-5 ovarian = tested on: OVCAR-5 ovarian
OVCAR-8 ovarian = tested on: OVCAR-8 ovarian
PC-3 prostate = tested on: PC-3 prostate
RPMI-8226 leukemia = tested on: RPMI-8226 leukemia
RXF 393 renal = tested on: RXF 393 renal
SF-268 CNS = tested on: SF-268 CNS
SF-295 CNS = tested on: SF-295 CNS
SF-539 CNS = tested on: SF-539 CNS
SK-MEL-2 melanoma = tested on: SK-MEL-2 melanoma
SK-MEL-28 melanoma = tested on: SK-MEL-28 melanoma
SK-MEL-5 melanoma = tested on: SK-MEL-5 melanoma
SK-OV-3 ovarian = tested on: SK-OV-3 ovarian
SN12C renal = tested on: SN12C renal
SNB-19 CNS = tested on: SNB-19 CNS
SR leukemia = tested on: SR leukemia
SW-620 colon = tested on: SW-620 colon
T-47D breast = tested on: T-47D breast
TK-10 renal = tested on: TK-10 renal
U251 CNS = tested on: U251 CNS
UACC-257 melanoma = tested on: UACC-257 melanoma
UACC-62 melanoma = tested on: UACC-62 melanoma
UO-31 renal = tested on: UO-31 renal

## CCN(CC)CCn1c(N)c(-c2nc3ccccc3n2C)c2nc(C#N)c(C#N)nc21
786-0 renal
  GI50: 1.01 µM
  TGI: 2.91 µM
A549 NSCLC
  GI50: 3.2 µM
  TGI: 13.7 µM
ACHN renal
  GI50: 0.696 µM
  TGI: 1.53 µM
BT-549 breast
  GI50: 7.64 µM
  TGI: 18.3 µM
CAKI-1 renal
  GI50: 3.7 µM
  TGI: 11.2 µM
CCRF-CEM leukemia
  GI50: 4.25 µM
  TGI: 37.9 µM
COLO 205 colon
  GI50: 3.84 µM
  TGI: > 28.1 µM
DU-145 prostate
  GI50: 3.93 µM
  TGI: 13 µM
EKVX NSCLC
  GI50: 7.1 µM
  TGI: 20.5 µM
HCC-2998 colon
  GI50: 0.696 µM
  TGI: 1.41 µM
HCT-116 colon
  GI50: 1.94 µM
  TGI: > 18.5 µM
HCT-15 colon
  GI50: 5.9 µM
  TGI: > 27.1 µM
HL-60(TB) leukemia
  GI50: 2.84 µM
  TGI: > 50 µM
HOP-62 NSCLC
  GI50: 2.65 µM
  TGI: 11 µM
HOP-92 NSCLC
  GI50: 2.5 µM
  TGI: 12.1 µM
HS 578T breast
  GI50: 2.52 µM
  TGI: 11.7 µM
IGROV1 ovarian
  GI50: 1.3 µM
  TGI: 14.3 µM
K-562 leukemia
  GI50: 3.31 µM
  TGI: > 42.2 µM
KM12 colon
  GI50: 5.65 µM
  TGI: 20.3 µM
LOX IMVI melanoma
  GI50: 0.97 µM
  TGI: 2.62 µM
M14 melanoma
  GI50: 7.21 µM
  TGI: 30.8 µM
MCF7 breast
  GI50: 3.08 µM
  TGI: > 50 µM
MDA-MB-231 breast
  GI50: 0.295 µM
  TGI: 1.71 µM
MDA-MB-435
  GI50: 6.23 µM
  TGI: > 32.4 µM
MOLT-4 leukemia
  GI50: 1.81 µM
  TGI: 11.1 µM
NCI-H226 lung
  GI50: 9.57 µM
  TGI: 39.8 µM
NCI-H23 lung
  GI50: 1.7 µM
  TGI: 16.2 µM
NCI-H460 lung
  GI50: 4.58 µM
  TGI: 38.5 µM
NCI-H522 lung
  GI50: 3.72 µM
  TGI: 24.9 µM
NCI/ADR-RES ovarian
  GI50: 3.1 µM
  TGI: 8.86 µM
OVCAR-3 ovarian
  GI50: 1.52 µM
  TGI: 7.31 µM
OVCAR-4 ovarian
  GI50: 1.86 µM
  TGI: 9.91 µM
OVCAR-5 ovarian
  GI50: 3.96 µM
  TGI: 12.7 µM
OVCAR-8 ovarian
  GI50: 3.43 µM
  TGI: 13.8 µM
PC-3 prostate
  GI50: 1.8 µM
  TGI: > 19.5 µM
RPMI-8226 leukemia
  GI50: 1.97 µM
  TGI: > 12.1 µM
RXF 393 renal
  GI50: 1.98 µM
  TGI: 4.46 µM
SF-268 CNS
  GI50: 3.64 µM
  TGI: 22.4 µM
SF-295 CNS
  GI50: 5.62 µM
  TGI: 15.6 µM
SF-539 CNS
  GI50: 2.8 µM
  TGI: 9.43 µM
SK-MEL-2 melanoma
  GI50: 6.28 µM
  TGI: 25.6 µM
SK-MEL-28 melanoma
  GI50: 0.6 µM
  TGI: 3.02 µM
SK-MEL-5 melanoma
  GI50: 3.04 µM
  TGI: 12.8 µM
SK-OV-3 ovarian
  GI50: 5.21 µM
  TGI: 14.3 µM
SN12C renal
  GI50: 3.09 µM
  TGI: 14.2 µM
SNB-19 CNS
  GI50: 7.3 µM
  TGI: 21.5 µM
SR leukemia
  GI50: 12.2 µM
  TGI: > 50 µM
SW-620 colon
  GI50: 2.59 µM
  TGI: > 21.8 µM
T-47D breast
  GI50: 1.68 µM
TK-10 renal
  GI50: 7.16 µM
  TGI: 14.2 µM
U251 CNS
  GI50: 1.27 µM
  TGI: 4.06 µM
UACC-257 melanoma
  GI50: 2.23 µM
  TGI: 10.3 µM
UACC-62 melanoma
  GI50: 3.44 µM
  TGI: 15 µM
UO-31 renal
  GI50: 2.06 µM
  TGI: 6.61 µM
